Experimental data reported in article PMC5071162 (ACS chemical neuroscience, 2016).

Tested on: GPR88
Test: not given
Conditions: HTRF cAMP assay; ref 13 (Bi et al.); cited from earlier work

Compound	EC50
CCCc1ccc(-c2ccc(N(C[C@@H](N)[C@@H](C)CC)C(=O)[C@@H]3C[C@H]3c3ccccn3)cc2)cc1 [compound 2]	[…]

Tested on: P-glycoprotein
Test: not given
Conditions: reported; cited from earlier work

Compound	P-glycoprotein substrate
CCCc1ccc(-c2ccc(N(C[C@@H](N)[C@@H](C)CC)C(=O)[C@@H]3C[C@H]3c3ccccn3)cc2)cc1 (relative stereo) [compound 1, (1R*,2R*)-2-(pyridin-2-yl)-cyclopropanecarboxylic acid ((2S,3S)-2-amino-3-methylpentyl)-(4′-propylbiphenyl-4-yl)-amide]	P-glycoprotein substrate

Biological target: human GPR88 (Homo sapiens, UniProt Q9GZN0)
Test: Lance cAMP assay using stable PPLS-HA-GPR88 CHO cells
Assay type: cell-based
Conditions: EC50

human GPR88, sequence (Q9GZN0 whole entry): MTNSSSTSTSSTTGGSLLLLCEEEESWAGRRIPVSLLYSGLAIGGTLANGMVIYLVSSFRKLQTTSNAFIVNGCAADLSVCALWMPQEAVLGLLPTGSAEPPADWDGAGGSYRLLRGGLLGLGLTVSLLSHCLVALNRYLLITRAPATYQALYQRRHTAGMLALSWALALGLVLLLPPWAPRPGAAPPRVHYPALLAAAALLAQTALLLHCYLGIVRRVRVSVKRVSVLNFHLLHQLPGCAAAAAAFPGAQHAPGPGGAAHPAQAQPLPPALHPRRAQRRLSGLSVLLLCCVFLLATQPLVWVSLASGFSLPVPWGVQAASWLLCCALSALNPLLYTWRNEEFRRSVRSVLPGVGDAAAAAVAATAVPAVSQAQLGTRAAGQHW

Compound	EC50
CCOC(=O)c1ccc(-c2ccc(N(C[C@@H](N)[C@@H](C)CC)C(=O)[C@@H]3C[C@H]3c3ccccn3)cc2)cc1 (relative stereo) [5u, (1R*,2R*)-2-(Pyridin-2-yl)cyclopropanecarboxylic Acid [(2S,3S)-2-Amino-3-methylpentyl]-(4′-ethoxycarbonylbiphenyl-4-yl)amide]	257 nM
CC[C@H](C)[C@H](N)CN(C(=O)[C@@H]1C[C@H]1c1ccccn1)c1ccc(-c2ccc(O)cc2)cc1 (relative stereo) [5v, (1R*,2R*)-2-(Pyridin-2-yl)cyclopropanecarboxylic Acid [(2S,3S)-2-Amino-3-methylpentyl]-(4′-hydroxybiphenyl-4-yl)amide]	2860 nM
CC[C@H](C)[C@H](N)CN(C(=O)[C@@H]1C[C@H]1c1ccccn1)c1ccc(-c2ccc(N)cc2)cc1 (relative stereo) [5w, (1R*,2R*)-2-(Pyridin-2-yl)cyclopropanecarboxylic Acid [(2S,3S)-2-Amino-3-methylpentyl]-(4′-aminobiphenyl-4-yl)amide]	1120 nM
CC[C@H](C)[C@H](N)CN(C(=O)[C@@H]1C[C@H]1c1ccccn1)c1ccc(-c2ccc(N(C)C)cc2)cc1 (relative stereo) [5x, (1R*,2R*)-2-(Pyridin-2-yl)cyclopropanecarboxylic Acid [(2S,3S)-2-Amino-3-methylpentyl]-[4′-(dimethylamino)biphenyl-4-yl]amide]	294 nM

Same assay, conditions: qualitative SAR statement, Lance cAMP assay

Compound	agonist activity in words
CC[C@H](C)[C@H](N)CN(C(=O)[C@@H]1C[C@H]1c1ccccn1)c1ccc(-c2ccc(O)cc2)cc1 (relative stereo) [5v, (1R*,2R*)-2-(Pyridin-2-yl)cyclopropanecarboxylic Acid [(2S,3S)-2-Amino-3-methylpentyl]-(4′-hydroxybiphenyl-4-yl)amide]	significant decrease in activity
CC[C@H](C)[C@H](N)CN(C(=O)[C@@H]1C[C@H]1c1ccccn1)c1ccc(-c2ccc(N)cc2)cc1 (relative stereo) [5w, (1R*,2R*)-2-(Pyridin-2-yl)cyclopropanecarboxylic Acid [(2S,3S)-2-Amino-3-methylpentyl]-(4′-aminobiphenyl-4-yl)amide]	significant decrease in activity
CC[C@H](C)[C@H](N)CN(C(=O)[C@@H]1C[C@H]1c1ccccn1)c1ccc(-c2ccc(NC(C)=O)cc2)cc1 (relative stereo) [5y, (1R*,2R*)-2-(Pyridin-2-yl)cyclopropanecarboxylic Acid [(2S,3S)-2-Amino-3-methylpentyl]-(4′-acetamidobiphenyl-4-yl)amide]	least activity in the series
CC[C@H](C)[C@H](N)CN(C(=O)[C@@H]1C[C@H]1c1ccccn1)c1ccc(-c2ccc(C(N)=O)cc2)cc1 (relative stereo) [5z, (1R*,2R*)-2-(Pyridin-2-yl)cyclopropanecarboxylic Acid [(2S,3S)-2-Amino-3-methylpentyl]-(4′-carbamoylbiphenyl-4-yl)amide]	least activity in the series
(1R*,2R*)-2-(Pyridin-2-yl)cyclopropanecarboxylic Acid [(2S,3S)-2-Amino-3-methylpentyl]-(4′-benzylphenyl-4-yl)amide [4f]	deteriorated activity
(1R*,2R*)-2-(Pyridin-2-yl)cyclopropanecarboxylic Acid [(2S,3S)-2-Amino-3-methylpentyl]-(4′-phenethylphenyl-4-yl)amide [4g]	deteriorated activity
(1R*,2R*)-2-(Pyridin-2-yl)cyclopropanecarboxylic Acid [(2S,3S)-2-Amino-3-methylpentyl]-(4′-phenoxyphenyl-4-yl)amide [4e]	deteriorated activity
